# Article PMC5667507, “A novel ^18F-labelled high affinity agent for PET imaging of the translocator protein” (Chemical Science, 2015)
# Experiments:
# [1] = Metabolite analysis of arterial blood samples from baboon (parent fraction); type: in vivo, baboon (Papio anubis); conditions: baboon arterial plasma, 60 minutes post-injection
# Protocol: Following PET reconstruction and co-registration to an MRI (Fig. 7a), a time–activity curve for the tracer in the whole brain was established (Fig. 7b). […]
# generated and SUV determined as the concentration in the VOI divided by the injected dose divided […]
# software (GraphPad Softare Inc).
# Arterial blood samples were collected from the baboon every 45 s until 6 min after injection of […]
# exception of the samples collected for metabolite analysis (3.5 mL each), all blood samples were 1 mL each. Samples for metabolite analysis were collected at 6, 15, 30, 60, 120, 150 and 240 min after radiotracer bolus injection. After blood collection, all samples were kept on ice until analysed.
# Radioactivity in whole blood and plasma was assessed with a well-type γ-counter using a 400–1400 keV window (Perkin Elmer Wallac 2480, USA). Plasma samples were processed by acetonitrile denaturation and analysed by HPLC on a Luna C18 column with a mobile phase of MeOH/H2O-Et3N (0.2%) 80/20 at a flow rate of 4 mL/min to estimate the parent fraction.
# [2] = system: TSPO; test: In vitro autoradiography, brain sections of G7 orthotopic mouse model of human glioblastoma; type: binding
# From the text: (§1) An initial investigation of the potential of [^18F]-AB5186 6 to bind to TSPO in brain involved in vitro autoradiography using a G7 orthotopic mouse model of human glioblastoma.[25] Autoradiography allows the distribution of a radiolabelled compound to be visualised in intact biological tissue sections.[26] […] Displacement of [^18F]-AB5186 6 by the TSPO ligand PK11195 confirms the in vitro specificity of the tracer for TSPO in brain tissue.
# (§2) The fraction containing 18F-AB5186 6 was concentrated in vacuo and then reconstituted in 2 mL of a 10% ethanol/0.9% saline solution. Passing the sample through a pre-treated 13 mm 0.2 µm filter then completed formulation of the radiotracer. The identity of the radiolabelled product was confirmed by co-injection with a cold sample of AB5186 6. Quality control was performed by analytical HPLC, using a Phenomenex Synergi 4 µm Hydro-RP 80A (150 × 4.60 mm) column and the mobile phase described above for the semi-prep HPLC purification step. Radiochemical purity was determined by measuring the area under the peaks on the chromatogram, and specific activity was calculated using a standard curve.
# (§3) 8. Radio-HPLC chromatogram of [18F]-AB5186 (6) after purification
# (§4) CD1 nude mice had […] of either G7 or U87MG-Luc2 cultured cells implanted intracranially into the caudate nucleus using standard stereotactic procedures. Successful implantation of U87MG-Luc2 tumours was confirmed by performing IVIS® scans approximately two weeks following the procedure. Animals were used for ex vivo autoradiography and PET imaging studies 21–30 days post tumour implantation. Prior to any procedure mice were anaesthetised using inhaled isoflurane (in medical oxygen; induction 5.0%; maintenance 2.0–3.0%). Body temperature was maintained using a heating pad.
# (§5) 10. In vitro Autoradiography5 Methodology
# (§6) The brain from a mouse bearing an intracranial G7 tumour was used. […]
# (§7) temperature. Non-specific binding was determined in adjacent sections by incubating with [18F]- AB5186 6 in the presence of 10 µM PK11195 (Tocris, UK). […]
# [3] = target: T1, TSPO (Mus musculus, UniProt P50637); test: as above; type: binding; conditions: contralateral region; 3 nM tracer, 10 µM PK11195
# T1 construct: The brain from a mouse bearing an intracranial G7 tumour was used; from tissue; host or cells: 20 µm coronal cryosections of CD1 nude mouse brain with an intracranial G7 human glioblastoma xenograft
# From the text: as §1, §2, §3, §4, §5, §6, §7
# T1 sequence (P50637 whole entry): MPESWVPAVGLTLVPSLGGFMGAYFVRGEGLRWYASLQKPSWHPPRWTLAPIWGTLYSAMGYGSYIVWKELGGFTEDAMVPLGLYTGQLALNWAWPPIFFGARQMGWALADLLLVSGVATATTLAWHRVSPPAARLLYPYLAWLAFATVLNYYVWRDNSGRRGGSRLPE
smiles,measurement,setting,value
CCN(CC)C(=O)c1nc2ccccc2c(-c2ccccc2)c1C[18F] [[^18F]-AB5186 6],parent still intact,[1],29.8%
same,"total binding, tumour tissue compared to contralateral side","[2]; in vitro autoradiograms, G7 xenograft",markedly increased
same,displacement of tracer binding by excess unlabelled PK11195,"[2]; tumour tissue, 3 nM tracer, 10 µM PK11195",76%
same,displacement of tracer binding by excess unlabelled PK11195,[3],23%
